This note sets out measurements from patent US12503455B2, “Nucleic acid-binding photoprobes and uses thereof” (Arrakis Therapeutics, Inc., priority 2017, dated 2025).

Structures are written as SMILES.

In assay [1] the test system is Aptamer 21-E. Briefly: SHAPE-MaP on Aptamer 21-E with and without ligand. As to conditions: suggesting weak binding. As to the method: The SHAPE-MaP approach exploits conditions that cause reverse transcriptase to misread SHAPE-modified nucleotides and incorporate a nucleotide non-complementary to the original sequence into the newly synthesized cDNA. The positions and relative frequencies of SHAPE adducts are recorded as mutations in the cDNA primary sequence. In a SHAPE-MaP experiment, the RNA is treated with a SHAPE reagent or treated with solvent only, and the RNA is […]. RNA from each experimental condition is reverse-transcribed, and the resulting cDNAs are then sequenced. […]
SHAPE-MaP can be performed and analyzed according to detailed published methods (Martin et al., RNA 2012; 18:77-87; McGuinness et al., J. Am. Chem. Soc. 2012; 134:6617-6624; Siegfried et al., Nature Methods 2014; 11:959-965; Lavender et al., PLoS Comput. Biol. 2015; 11(5)e1004230; McGuinness et al., Proc. Natl. Acad. Sci. USA 2015; 112:2425-2430). The SHAPE-MaP sequence data can be analyzed using ShapeFinder (Vasa et al., RNA 2008; 14:1979-1990) or ShapeMapper (Siegfried et al., Nature Methods 2014; 11:959-965) or other software. […]
For all SHAPEware analysis, reads were adapter-trimmed aligned as previously described (https://bitbucket.org/arrakistx/shapeware/src) using Trimmomatic (http://dx.doi.org/10.1093/bioinformatics/btu170) and bwa-mem (https://arxiv.org/abs/1303.3997), respectively. […]

In assay [2] the test system is Aptamer 21-E. The experiment in a line: SEC/LCMS binding to Aptamer 21-E. The protocol: The RNA concentration was 1 μM and the ligand concentration ranged from 0.1 to 10 μM in an appropriate buffer (TRIS-HCl 20 mM pH 8.0, MgCl2 3 mM, KCl 100 mM).
The RNA/ligand mixtures were incubated at room temperature for 20 minutes in a 96-well plate format, then this plate was loaded into an autosampler linked to the chromatography system fitted with a reusable SEC column for rapid separation of target/ligand complexes from unbound components. RNA/ligand complexes in SEC eluent were monitored by UV detection, and an automated valving system directed the RNA peak to a reverse phase chromatography column for dissociation, desalting, and elution of any ligands into an ESI-MS system for identification.
All liquid chromatographic components were HP1200 modules. The mass spectrometer was the Waters LCT premier instrument operated in positive electrospray (ES+) TOF-MS mode. The mass range acquired was 80-1000 m/z in 0.25 s. The SEC column was 50×4.6 mm polyhydroxyethyl column. The SEC mobile phase was 50 mM phosphate buffer with 200 mM NaCl, pH=7.0. The LC column was a 2.1×50 mm C18 Phenomenex column. The gradient LC mobile phase A was 0.1% formic acid in water and B was acetonitrile/water with 0.1% formic acid. The run time was 7.9 min.
The start of saturation was between 1 and 3 μM.

Assay [3] concerns Aptamer 21. Briefly: Competition between Aptamer 21 photoprobes and RNA-binding ligands (RT pausing). As to the method:
Aptamer 21 was either incubated with probe alone (ARK-581) or probe plus a 10-fold excess of RNA-binding ligand.
Both ARK-852 and ARK-139 inhibit the photocrosslinking of probes to Aptamer 21.
Folded RNA (1 μM) was incubated with the photoaffinity probe (10 μM) in total 25 μL of buffer (20 mM TrisHCl pH 8, 100 mM KCl, 3 mM MgCl2) with 2.5% DMSO for 30 min at 37° C. to allow binding to come to equilibrium. The sample was then irradiated with long wave UV light (˜365 nm) for 30 min in a UV crosslinker (Fisher Scientific).
A 3.75 μL aliquot of 10 μM reverse transcription primer was added to the cross-linked RNA sample, which was then incubated for 5 min at 65° C. and then cooled on ice. The sample was then diluted to a final volume of 60 μL and final buffer concentration of 1× Protoscript-II buffer (New England Biolabs), 0.5 mM dNTPs, 10 mM DTT, 0.4 U/μL RNase Inhibitor (New England Biolabs), and 10 U/μL Protoscript-II (New England Biolabs). The reaction was incubated at 45° C. for 2 h, 65° C. for 20 min, and then 4° C.
The RNA was hydrolyzed by the addition of 4.8 μL of 2.5 M NaOH and heating at 95° C. for 5 min. The reaction was quenched by the addition of 0.9 μL of acetic acid. The cDNA was precipitated by the addition of 6.6 μL of 3 M sodium acetate pH 5 and 181 μL ethanol, cooling to −80° C. for 1 h, and then centrifuging at 20,500×g at 4° C. for 30 min. The cDNA pellet was washed twice with 500 μL of 70% ethanol and then air dried for 5 min.
The cDNA pellet was resuspended in 12 μL of 1×TBE-urea sample loading buffer (Bio-Rad) and heated to 95° C. for 5 min. The sample was then run on a pre-cast 8.6×6.7 cm TBE-urea 10% PAGE gel (Bio-Rad) at 120 V until the lower bromophenol blue dye reached the bottom of the gel. The gel was stained with 1×SYBR-gold (Invitrogen) in 1×TBE buffer at room temperature for 20 min covered from light. The gel fluorescence was imaged on an Azure c600 instrument.

Consider `COC(=O)C1=C(COCc2cn(CCOCCOCCO)nn2)NC(c2ccncc2)=NC1c1ccc(F)cc1Cl` (racemic) [I-1], for which, in assay [1], the “alteration in SHAPE reactivity of Aptamer 21-E in presence of ligand” value is “almost no alteration”. Further, the “binding to Aptamer 21-E by SEC/LCMS” value in assay [2] was “does not bind”. The “inhibition of photocrosslinking of ARK-581 to Aptamer 21” value in assay [3] (10-fold excess of RNA-binding ligand over probe) is “efficiently inhibited”. Moreover, the “inhibition of photocrosslinking of probes to Aptamer 21 (RT pausing competition assay)” value in assay [3] (FIG. 65) is given as “inhibit”.
